Measurements published in the supplement of paper PMC10307832.

Legend:
Assay in all cases: relative viability (nuclei count vs DMSO), 5 days (fraction); higher = more cells survive
NCI-H441 = tested on: NCI-H441
How it was run: (§1)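 Each reported value is a median over duplicate plates. It expresses relative viability: treated-well nuclei count divided by vehicle-well nuclei count. Lung cancer cell lines in 1536-well plates were dosed by pin tool a day after seeding, alone with one drug or with a fixed anchor-drug dose plus five library-drug doses (not always all listed) in √10 steps, and nuclei were counted after 5 days.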

NCI-H1395 = tested on: NCI-H1395
How it was run: as §1

NCI-H2405 = tested on: NCI-H2405
How it was run: as §1

NCI-H2228 = tested on: NCI-H2228
How it was run: as §1

NCI-H2342 = tested on: NCI-H2342
How it was run: as §1

NCI-H1755 = tested on: NCI-H1755
How it was run: as §1

HCC-78 = tested on: HCC-78
How it was run: as §1

PC-3 [JPC-3] = tested on: PC-3 [JPC-3]
How it was run: as §1

NCI-H522 = tested on: NCI-H522
How it was run: as §1

HCC-827 = tested on: HCC-827
How it was run: as §1

NCI-H2009 = tested on: NCI-H2009
How it was run: as §1

LCLC-97TM1 = tested on: LCLC-97TM1
How it was run: as §1

NCI-H647 = tested on: NCI-H647
How it was run: as §1

NCI-H520 = tested on: NCI-H520
How it was run: as §1

NCI-H1792 = tested on: NCI-H1792
How it was run: as §1

ChaGo-K-1 = tested on: ChaGo-K-1
How it was run: as §1

NCI-H1355 = tested on: NCI-H1355
How it was run: as §1

LOU-NH91 = tested on: LOU-NH91
How it was run: as §1

NCI-H661 = tested on: NCI-H661
How it was run: as §1

NCI-H1993 = tested on: NCI-H1993
How it was run: as §1

SK-MES-1 = tested on: SK-MES-1
How it was run: as §1

LK-2 = tested on: LK-2
How it was run: as §1

NCI-H2085 = tested on: NCI-H2085
How it was run: as §1

Work on `C=C1C(=O)O[C@@H](CCCCCCCC)[C@@H]1C(=O)O` [C-75] + Cc1nc(Nc2ncc(C(=O)Nc3c(C)cccc3Cl)s2)cc(N2CCN(CCO)CC2)n1 [Dasatinib] (partner 0.075 µM) yielded a relative viability (NCI-H441; first compound 0.08 µM) of 0.545, a relative viability (NCI-H441; first compound 0.253 µM) of 0.916 and a relative viability (NCI-H441; first compound 0.8 µM) of 0.723. For the same compound, the relative viability (NCI-H441; first compound 2.53 µM) was 0.463, the relative viability (NCI-H441; first compound 8 µM) was 0.594 and the relative viability (NCI-H1395; first compound 0.08 µM) was 0.396. For the same compound, the relative viability (NCI-H1395; first compound 0.253 µM) was 0.388, the relative viability (NCI-H1395; first compound 0.8 µM) was 0.42 and the relative viability (NCI-H1395; first compound 2.53 µM) was 0.407. For the same compound, the relative viability (NCI-H1395; first compound 8 µM) was 0.477, the relative viability (NCI-H2405; first compound 0.08 µM) was 0.196 and the relative viability (NCI-H2405; first compound 0.253 µM) was 0.191. For the same compound, the relative viability (NCI-H2405; first compound 0.8 µM) was 0.188, the relative viability (NCI-H2405; first compound 2.53 µM) was 0.216 and the relative viability (NCI-H2405; first compound 8 µM) was 0.22. The relative viability (NCI-H2228; first compound 0.08 µM) was 0.613, the relative viability (NCI-H2228; first compound 0.253 µM) was 0.627 and the relative viability (NCI-H2228; first compound 0.8 µM) was 0.524. It also gave a relative viability (NCI-H2228; first compound 2.53 µM) of 0.394, a relative viability (NCI-H2228; first compound 8 µM) of 0.396 and a relative viability (NCI-H2342; first compound 0.08 µM) of 0.3. For the same compound, the relative viability (NCI-H2342; first compound 0.253 µM) was 0.314, the relative viability (NCI-H2342; first compound 0.8 µM) was 0.301 and the relative viability (NCI-H2342; first compound 2.53 µM) was 0.327. It also gave a relative viability (NCI-H2342; first compound 8 µM) of 0.316, a relative viability (NCI-H1755; first compound 0.08 µM) of 0.42 and a relative viability (NCI-H1755; first compound 0.253 µM) of 0.33. It also gave a relative viability (NCI-H1755; first compound 0.8 µM) of 0.404, a relative viability (NCI-H1755; first compound 2.53 µM) of 0.259 and a relative viability (NCI-H1755; first compound 8 µM) of 0.43. For the same compound, the relative viability (HCC-78; first compound 0.08 µM) was 0.418, the relative viability (HCC-78; first compound 0.253 µM) was 0.469 and the relative viability (HCC-78; first compound 0.8 µM) was 0.341. The relative viability (HCC-78; first compound 2.53 µM) was 0.274, the relative viability (HCC-78; first compound 8 µM) was 0.347 and the relative viability (PC-3 [JPC-3]; first compound 0.08 µM) was 1.01. It also gave a relative viability (PC-3 [JPC-3]; first compound 0.253 µM) of 0.994, a relative viability (PC-3 [JPC-3]; first compound 0.8 µM) of 1.01 and a relative viability (PC-3 [JPC-3]; first compound 2.53 µM) of 0.937. The relative viability (PC-3 [JPC-3]; first compound 8 µM) was 1, the relative viability (NCI-H522; first compound 0.08 µM) was 0.867 and the relative viability (NCI-H522; first compound 0.253 µM) was 0.849. It also gave a relative viability (NCI-H522; first compound 0.8 µM) of 0.784, a relative viability (NCI-H522; first compound 8 µM) of 0.906 and a relative viability (HCC-827; first compound 0.08 µM) of 0.28. For the same compound, the relative viability (HCC-827; first compound 0.253 µM) was 0.356, the relative viability (HCC-827; first compound 0.8 µM) was 0.301 and the relative viability (HCC-827; first compound 2.53 µM) was 0.221. The relative viability (HCC-827; first compound 8 µM) was 0.347, the relative viability (NCI-H2009; first compound 0.08 µM) was 0.303 and the relative viability (NCI-H2009; first compound 0.253 µM) was 0.219. For the same compound, the relative viability (NCI-H2009; first compound 0.8 µM) was 0.281, the relative viability (NCI-H2009; first compound 2.53 µM) was 0.228 and the relative viability (NCI-H2009; first compound 8 µM) was 0.203. It also gave a relative viability (LCLC-97TM1; first compound 0.08 µM) of 0.799, a relative viability (LCLC-97TM1; first compound 0.253 µM) of 0.807 and a relative viability (LCLC-97TM1; first compound 0.8 µM) of 0.883. For the same compound, the relative viability (LCLC-97TM1; first compound 2.53 µM) was 0.704, the relative viability (LCLC-97TM1; first compound 8 µM) was 0.874 and the relative viability (NCI-H647; first compound 0.08 µM) was 0.227. The relative viability (NCI-H647; first compound 0.253 µM) was 0.114, the relative viability (NCI-H647; first compound 0.8 µM) was 0.172 and the relative viability (NCI-H647; first compound 2.53 µM) was 0.143. For the same compound, the relative viability (NCI-H647; first compound 8 µM) was 0.219, the relative viability (NCI-H520; first compound 0.08 µM) was 0.188 and the relative viability (NCI-H520; first compound 0.253 µM) was 0.206. It also gave a relative viability (NCI-H520; first compound 0.8 µM) of 0.206, a relative viability (NCI-H520; first compound 2.53 µM) of 0.182 and a relative viability (NCI-H520; first compound 8 µM) of 0.179. For the same compound, the relative viability (NCI-H1792; first compound 0.08 µM) was 0.788, the relative viability (NCI-H1792; first compound 0.253 µM) was 0.623 and the relative viability (NCI-H1792; first compound 0.8 µM) was 0.724. For the same compound, the relative viability (NCI-H1792; first compound 2.53 µM) was 0.503, the relative viability (NCI-H1792; first compound 8 µM) was 0.692 and the relative viability (ChaGo-K-1; first compound 0.08 µM) was 0.675. It also gave a relative viability (ChaGo-K-1; first compound 0.253 µM) of 0.463, a relative viability (ChaGo-K-1; first compound 0.8 µM) of 0.567 and a relative viability (ChaGo-K-1; first compound 2.53 µM) of 0.393. The relative viability (ChaGo-K-1; first compound 8 µM) was 0.593, the relative viability (NCI-H1355; first compound 0.08 µM) was 0.71 and the relative viability (NCI-H1355; first compound 0.253 µM) was 0.613. For the same compound, the relative viability (NCI-H1355; first compound 0.8 µM) was 0.702, the relative viability (NCI-H1355; first compound 2.53 µM) was 0.649 and the relative viability (NCI-H1355; first compound 8 µM) was 0.775. The relative viability (LOU-NH91; first compound 0.08 µM) was 0.605, the relative viability (LOU-NH91; first compound 0.253 µM) was 0.527 and the relative viability (LOU-NH91; first compound 0.8 µM) was 0.492. It also gave a relative viability (LOU-NH91; first compound 2.53 µM) of 0.414, a relative viability (LOU-NH91; first compound 8 µM) of 0.544 and a relative viability (NCI-H661; first compound 0.08 µM) of 0.839. It also gave a relative viability (NCI-H661; first compound 0.253 µM) of 0.795, a relative viability (NCI-H661; first compound 0.8 µM) of 0.857 and a relative viability (NCI-H661; first compound 2.53 µM) of 0.856. The relative viability (NCI-H661; first compound 8 µM) was 0.746, the relative viability (NCI-H1993; first compound 0.08 µM) was 0.568 and the relative viability (NCI-H1993; first compound 0.253 µM) was 0.861. It also gave a relative viability (NCI-H1993; first compound 0.8 µM) of 0.475, a relative viability (NCI-H1993; first compound 2.53 µM) of 0.553 and a relative viability (NCI-H1993; first compound 8 µM) of 0.602. It also gave a relative viability (SK-MES-1; first compound 0.08 µM) of 0.357, a relative viability (SK-MES-1; first compound 0.253 µM) of 0.286 and a relative viability (SK-MES-1; first compound 0.8 µM) of 0.319. For the same compound, the relative viability (SK-MES-1; first compound 2.53 µM) was 0.332, the relative viability (SK-MES-1; first compound 8 µM) was 0.336 and the relative viability (LK-2; first compound 0.08 µM) was 0.388. The relative viability (LK-2; first compound 0.253 µM) was 0.433, the relative viability (LK-2; first compound 0.8 µM) was 0.309 and the relative viability (LK-2; first compound 2.53 µM) was 0.237. For the same compound, the relative viability (LK-2; first compound 8 µM) was 0.291, the relative viability (NCI-H2085; first compound 0.08 µM) was 0.264 and the relative viability (NCI-H2085; first compound 0.253 µM) was 0.309. For the same compound, the relative viability (NCI-H2085; first compound 0.8 µM) was 0.284, the relative viability (NCI-H2085; first compound 2.53 µM) was 0.266 and the relative viability (NCI-H2085; first compound 8 µM) was 0.259.
